Assay [1] deals with T1, Proteasome subunit beta type-1 (Homo sapiens, UniProt P20618).
T1 sequence (P20618 whole entry): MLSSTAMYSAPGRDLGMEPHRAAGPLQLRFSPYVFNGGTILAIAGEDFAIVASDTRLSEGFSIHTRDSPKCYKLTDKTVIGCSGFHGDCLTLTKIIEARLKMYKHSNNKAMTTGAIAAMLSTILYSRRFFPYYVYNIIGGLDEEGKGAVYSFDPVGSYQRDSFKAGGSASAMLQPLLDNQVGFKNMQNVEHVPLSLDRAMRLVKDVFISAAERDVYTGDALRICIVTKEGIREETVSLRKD
As to the kind of experiment: Inhibition of PGPH activity of human 20S proteasome using (Z)-LLE-bNA as substrate by fluorometric method.

Assay [2] addresses Proteasome subunit beta type-2 (Homo sapiens, UniProt P49721). In words: Inhibition of trypsin-like activity of human 20S proteasome using Bz-VGR-AMC as substrate by fluorometric method.

Consider three compounds from BindingDB's records for doi:10.1016/j.ejmech.2016.11.024 (Guangxi Normal University, 2017).

Chain of Proteasome subunit beta type-2 (P49721 whole entry): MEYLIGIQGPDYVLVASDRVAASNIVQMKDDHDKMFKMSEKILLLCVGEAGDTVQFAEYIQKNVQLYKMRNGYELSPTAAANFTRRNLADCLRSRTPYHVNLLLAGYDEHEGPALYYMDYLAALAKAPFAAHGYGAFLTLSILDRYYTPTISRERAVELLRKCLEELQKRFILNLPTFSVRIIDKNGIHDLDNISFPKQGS

`CC[C@H](C)[C@H](NC(=S)Nc1cccc([N+](=O)[O-])c1)C(=O)N[C@H](Cc1ccccc1)C(=O)Nc1cccc(C(F)(F)F)c1` returned an IC50 in assay [1] of 35 µM.
Compound `CC[C@H](C)[C@H](/N=C(/Nc1cccc(C(F)(F)F)c1)SC)C(=O)N[C@H](Cc1ccccc1)C(=O)Nc1cccc(C(F)(F)F)c1` registered an IC50 in assay [1] of 22.6 µM.
For the compound `CC[C@H](C)[C@H](NC(=S)Nc1ccc(C(F)(F)F)cc1)C(=O)N[C@H](Cc1ccccc1)C(=O)Nc1cccc(Br)c1`, the IC50 in assay [1] is 22.7 µM; in assay [2], greater than 50 µM.
